The values that follow come from patent US20030228675A1, “ATM related kinase ATX, nucleic acids encoding same and methods of use” (priority 2002, published 2003).

Common to all, as to type: cell-based, human
In data set [1] the test system is p53. Put plainly: Stress-induced p53 Ser-15 phosphorylation and p53 accumulation by immunoblotting. On the procedure:
To prepare recombinant HA-tagged ATX and ATM proteins, HEK 293T cells were plated onto 60-mm dishes (9×10^5 cells per dish), and were transfected with 5 μg pcDNA3.1 (empty vector), HA-ATXWT, HA-ATXKI, or HA-ATMWT plasmid DNAS. Transfections were performed with the Fugene 6 transfection reagent (Roche), according to the manufacturer's instructions. For NMD assays (see Example 9, below), U2OS cells were seeded onto 100 mm dishes (1×10^6 cells per dish). After 20 h, cells were transfected with 1.5 μg of pmCMV-Gl test plasmid, either Norm or 39Ter (Ishigaki et al., 2001); 1.5 μg of phCMV-MUP reference plasmid (Ishigaki et al., Cell 106:607-617 (2001)); and 7 μg of empty plasmid (pcDNA 3.1), plasmids encoding HA-ATMWT, HA-ATMKI, HA-ATXWT or HA-ATXKI. For antisense transfection experiments, U2OS cells were seeded onto 60 mm dishes (1×10^5 cells per dish) in complete medium supplemented with penicillin/streptomycin. After 30 h, cells were either mock transfected or transfected with sense (S) or antisense (AS) phosphorothioate oligonucleotides (Genset Oligos, La Jolla, Calif.). The S oligonucleotide spans ATX nucleotides 210-229 (5′-[…]-3′), and the AS oligonucleotide is complementary to this sequence (5′-[…]-3′). The cells were transfected with oligonucleotides at final concentrations of 8 μg/ml, with Fugene 6:DNA ratio of 1.6:1. Forty-eight hours after transfection, dishes were exposed to IR, UV-B, or 5-FU, and then harvested for immunoblotting, cell-cycle distribution, or cell survival assays. To examine ATX protein levels in oligonucleotide-treated cells, whole cell extracts were resolved by SDS-PAGE and immunoblotted with α-ATX Ab-1. When oligonucleotide-transfected cells were used for NMD assays, U2OS cells were seeded in culture dishes as described above. The cells were transfected using the Fugene reagent, with 1.5 μg of pmCMV-Gl test plasmid, 0.7 μg of phCMV-MUP reference plasmid, and 24 μg of S or AS oligonucleotide.
A major mediator of stress-induced signaling in mammalian cells is the tumor suppressor protein, p53 (Ko and Prives, Genes and Development 10:1054-1072, (1996); Ryan et al., Curr. Opin. Cell Biol. 13:332-337 (2001)). ATX phosphorylates p53 on Ser-15 (FIG. 1C), a site implicated in the regulation of p53 stability and transcriptional activity (Dumaz and Meek, Curr. Opin. Cell Biol. 13:225-231 (1999); Zhang and Xiong, Science 292:1910-1915 (2001)). Therefore, the possibility that these two proteins are functionally linked during cellular stress responses was investigated. U2OS cells were transiently transfected with a HA-ATXWT or HA-ATXKI expression plasmid, together with a GFP-encoding plasmid to allow for FACS-based enrichment of the transfected cells. The GFP+ cells were then examined for IR-induced stabilization of p53, as well as for specific phosphorylation of this protein on Ser-15. […] In contrast, overexpression of ATXWT enhanced both of these responses in cells exposed to IR.
The recognition of UV light-induced DNA damage occurs primarily during S phase, when pyrimidine dimers and other bulky lesions interfere with replication fork progression (Friedberg, DNA Repair and Mutagenesis (Washington, D.C., ASM Press) (1995); Lindahl and Wood, Cell 103:1121-1131 (1999)).
In order to further define the potential linkage between DNA replicational stress and ATX, the response of AS-treated cells to 5-fluorouracil (5-FU), an S-phase specific cytotoxic agent was examined (Danenberg et al., Seminars in Oncology 26:621-631 (1999); Grem, Investigational New Drugs 18:299-313 (2000)).
Changes in phosphorylation at Ser-15 are typically accompanied by alterations in the expression of the p53 protein, which complicates the interpretation of results obtained by immunoblotting of whole cell extracts with phospho-Ser-15-specific antibodies. […]
(Immunoblotting shows a protein as a band on a membrane.)

Data set [2] relates to U2OS cells. Description: Clonogenic survival assay of oligonucleotide-transfected cells. On the procedure:
To address concerns related to potential non-specific effects of ATXKI expression on cellular functions, an antisense oligonucleotide-based approach to reduce the level of ATX expression in U2OS cells was developed. The cells were mock transfected, or transfected with sense (S) or antisense (AS) oligonucleotides, and then treated for 24 h with various genotoxic agents. The cells were then trypsinized and replated, and clonogenic survival was analyzed after 10 days in culture. The results obtained with AS-treated cells were strikingly similar to those obtained with the ATXKI-expressing cells (FIGS. 2A-C). While transfection of U2OS cells with the S oligonucleotide reduced the basal level of colony outgrowth by 25%, treatment with the AS oligonucleotide decreased basal clonogenic activity by 75% (FIG. 2C, right panel). […] The reduction in ATX protein caused by AS treatment ranged from 50-90% in over 10 independent trials.
To prepare recombinant HA-tagged ATX and ATM proteins, HEK 293T cells were plated onto 60-mm dishes (9×10^5 cells per dish), and were transfected with 5 μg pcDNA3.1 (empty vector), HA-ATXWT, HA-ATXKI, or HA-ATMWT plasmid DNAS. Transfections were performed with the Fugene 6 transfection reagent (Roche), according to the manufacturer's instructions. For NMD assays (see Example 9, below), U2OS cells were seeded onto 100 mm dishes (1×10^6 cells per dish). […]
U2OS cells were seeded into 60 mm dishes (1×10^5 cells per dish) in complete medium. […] To quantitate the outgrowth of drug-resistant cells, the Coomassie Blue-bound protein was solubilized at 37° C. with 0.1 M NaOH, and the soluble material was analyzed by absorbance spectroscopy at a wavelength of 590 nm. […] Drug-resistant colonies were stained with Coomassie Blue after 10 days in culture, and the samples were analyzed with Image Pro Plus software to quantitate cell density. […]

Data set [3] deals with NMD of the Ter-containing β-globin mRNA. Description: NMD assay, β-globin Ter mRNA by RT-PCR. The following applies: U2OS, reduced endogenous ATX expression. On the procedure:
To prepare recombinant HA-tagged ATX and ATM proteins, HEK 293T cells were plated onto 60-mm dishes (9×10^5 cells per dish), and were transfected with 5 μg pcDNA3.1 (empty vector), HA-ATXWT, HA-ATXKI, or HA-ATMWT plasmid DNAS. Transfections were performed with the Fugene 6 transfection reagent (Roche), according to the manufacturer's instructions. For NMD assays (see Example 9, below), U2OS cells were seeded onto 100 mm dishes (1×10^6 cells per dish). After 20 h, cells were transfected with 1.5 μg of pmCMV-Gl test plasmid, either Norm or 39Ter (Ishigaki et al., 2001); 1.5 μg of phCMV-MUP reference plasmid (Ishigaki et al., Cell 106:607-617 (2001)); and 7 μg of empty plasmid (pcDNA 3.1), plasmids encoding HA-ATMWT, HA-ATMKI, HA-ATXWT or HA-ATXKI. For antisense transfection experiments, U2OS cells were seeded onto 60 mm dishes (1×10^5 cells per dish) in complete medium supplemented with penicillin/streptomycin. […]
Total or nuclear RNA was isolated using Trizol (Invitrogen) or the NE-PER kit (Pierce), respectively. The extent of NMD was determined by using RT-PCR to quantitate the levels of Globin and MUP mRNA as described previously (Ishigaki et al., Cell 83: 1-4 (2001)), except that 21 cycles of PCR were used when analyzing the effects of ATX-specific S and AS oligonucleotides.

As for “5′-AGCAAGCTCCCTCCTGTCTC-3′ (all phosphorothioate, sugars by position and methylation of C not given here) [AS oligonucleotide, ATX antisense phosphorothioate oligonucleotide complementary to ATX nucleotides 210-229]”, the “stoichiometric increase in Ser-15 phosphorylation (phospho-Ser-15 to total p53) triggered by UV” value in data set [1] (U2OS pretreated with proteasome inhibitor LLnV, UV) is reported as “effectively blocked”. Besides, the “level of p53 induction by 5-FU” value in data set [1] (U2OS, 5-FU exposure, versus S-treated cells) is listed as “identical to that observed in their S-treated counterparts”. In addition, the “phosphorylation and stabilization of p53 induced by IR exposure” value in data set [1] (U2OS, IR) was “reduced both the phosphorylation and stabilization of p53”. The “Ser-15 phosphorylation and p53 protein accumulation in UV-damaged cells” value in data set [1] (U2OS, UV) is “severely impaired both Ser-15 phosphorylation and p53 protein accumulation”. The “sensitivity to suppressive effects of IR and UV on clonogenic survival” value in data set [2] (IR and UV treatments) is reported as “significantly more sensitive”. The “decrease of basal level of colony outgrowth (basal clonogenic activity)” value in data set [2] (non-irradiated, 10 days in culture) stood at 75%. Besides, the NMD activity entry in data set [3] is “ATX expression is required for maximal NMD activity”.
